Test results reported in PubChem BioAssay AID190 (DTP/NCI, 2004).
Where “and” joins values, the source holds several entries; their conditions need not be identical. Equal entries are not always repeated. Inconclusive results and toxic doses are left out. How the source made its calls: active means survival T/C of 150% or more; inactive means T/C below 125% in these data. Numbered stars: 1 amine (or outer) side, 2 acyl side, 3 side chain; on linkers, the order of the positions; unused ones are H or OH. Bridge positions count the residues as written; N and C are the ends. Square brackets hold non-standard residues; d marks the D form. Peptide text beside a SMILES is read from it. I, II: the chains in the order shown. Actinocin(9to1) = Cc1c2oc3c(C)ccc(C(=O)[*:1])c3nc-2c(C(=O)[*:2])c(N)c1=O; aThr = C[C@H](O)[C@H](N)C(=O)O; NMeV = CN[C@H](C(=O)O)C(C)C; Sar = CNCC(=O)O

Tested on: AKR/Lw mice, AKR lymphoma ip, median survival T/C
Assay: NCI In Vivo Anticancer Drug Screen. Data for tumor model Lymphoma AKR (Transplanted) (intraperitoneal) in AKR/Lw mice
Conditions: endpoint: median survival time, higher = longer survival
Protocol: The antitumor activity of compounds was measured in mice bearing transplantable tumors. Survival or tumor size were measured and the results are expressed as the measurement made in the treated group (T) divided by the measurement made in the vehicle treated control group (C). The tumor model used in this assay is Lymphoma AKR (Transplanted) (intraperitoneal) in AKR/Lw mice

[1] = dose: 200.0 mg/kg/injection, schedule: Q01DX001 (ip), vehicle: saline

Measured: T/C

Nc1n[nH]c(N)n1
inactive: dose: 37.5 mg/kg/injection, schedule: Q06HX012 (ip), vehicle: saline 96 % of control | dose: 37.5 mg/kg/injection, schedule: Q06HX016 (ip), vehicle: saline 100 % of control | dose: 50.0 mg/kg/injection, schedule: Q01DX010 (ip), vehicle: saline 106 % of control | dose: 75.0 mg/kg/injection, schedule: Q06HX008 (ip), vehicle: saline 100 % of control | dose: 75.0 mg/kg/injection, schedule: Q06HX012 (ip), vehicle: saline 93 % of control | dose: 75.0 mg/kg/injection, schedule: Q06HX016 (ip), vehicle: saline 96 % of control | dose: 100.0 mg/kg/injection, schedule: Q01DX010 (ip), vehicle: saline 103 % of control | dose: 125.0 mg/kg/injection, schedule: Q06HX004 (ip), vehicle: saline 116 % of control | dose: 150.0 mg/kg/injection, schedule: Q01DX009 (ip), vehicle: saline 103 % of control | dose: 150.0 mg/kg/injection, schedule: Q06HX008 (ip), vehicle: saline 93 % of control | dose: 150.0 mg/kg/injection, schedule: Q06HX012 (ip), vehicle: saline 110 % of control | dose: 150.0 mg/kg/injection, schedule: Q06HX016 (ip), vehicle: saline 103 % of control | dose: 175.0 mg/kg/injection, schedule: Q01DX010 (ip), vehicle: saline 109 % of control | dose: 200.0 mg/kg/injection, schedule: Q04DX003 (ip), vehicle: saline 106 % of control | dose: 250.0 mg/kg/injection, schedule: Q01DX010 (ip), vehicle: saline 112 % of control | dose: 250.0 mg/kg/injection, schedule: Q06HX004 (ip), vehicle: saline 90 % of control and 92 % of control and 119 % of control | dose: 300.0 mg/kg/injection, schedule: Q01DX009 (ip), vehicle: saline 100 % of control | dose: 300.0 mg/kg/injection, schedule: Q06HX008 (ip), vehicle: saline 107 % of control | dose: 300.0 mg/kg/injection, schedule: Q06HX012 (ip), vehicle: saline 100 % of control | dose: 375.0 mg/kg/injection, schedule: Q01DX010 (ip), vehicle: saline 116 % of control | dose: 400.0 mg/kg/injection, schedule: Q04DX003 (ip), vehicle: saline 110 % of control | dose: 450.0 mg/kg/injection, schedule: Q06HX008 (ip), vehicle: saline 107 % of control | dose: 450.0 mg/kg/injection, schedule: Q06HX012 (ip), vehicle: saline 92 % of control | dose: 500.0 mg/kg/injection, schedule: Q06HX004 (ip), vehicle: saline 88 % of control and 116 % of control | dose: 530.0 mg/kg/injection, schedule: Q04DX003 (ip), vehicle: saline 109 % of control | dose: 675.0 mg/kg/injection, schedule: Q06HX012 (ip), vehicle: saline 107 % of control | dose: 800.0 mg/kg/injection, schedule: Q04DX003 (ip), vehicle: saline 121 % of control | dose: 1000.0 mg/kg/injection, schedule: Q06HX008 (ip), vehicle: saline 92 % of control

c1ccc(CC(Cc2ccccc2)CN2CCCC2)cc1
inactive: dose: 100.0 mg/kg/injection, schedule: Q01DX001 (ip), vehicle: saline 94 % of control | [1] 88 % of control | dose: 400.0 mg/kg/injection, schedule: Q01DX001 (ip), vehicle: saline 123 % of control

CC1NC1(c1ccccc1)[n+]1ccccc1 (stereo not drawn)
inactive: [1] 100 % of control

Nc1nc(N)nc(N)n1
inactive: dose: 100.0 mg/kg/injection, schedule: Q04DX003 (ip), vehicle: Klucel (hydroxypropylcellulose) (HPC) 97 % of control | dose: 200.0 mg/kg/injection, schedule: Q04DX003 (ip), vehicle: Klucel (hydroxypropylcellulose) (HPC) 108 % of control | dose: 400.0 mg/kg/injection, schedule: Q04DX003 (ip), vehicle: Klucel (hydroxypropylcellulose) (HPC) 86 % of control | dose: 800.0 mg/kg/injection, schedule: Q04DX003 (ip), vehicle: Klucel (hydroxypropylcellulose) (HPC) 105 % of control

Cc1c2oc3c(C)ccc(C(=O)N[C@@H]4C(=O)N[C@H](C(C)C)C(=O)N5CCC[C@H]5C(=O)N(C)CC(=O)N(C)[C@@H](C(C)C)C(=O)O[C@H]4C)c3nc-2c(C(=O)N[C@@H]2C(=O)N[C@H](C(C)C)C(=O)N3CCC[C@H]3C(=O)N(C)CC(=O)N(C)[C@@H](C(C)C)C(=O)O[C@H]2C)c(N)c1=O (I: [aThr][dV]P[Sar][NMeV] / II: [aThr][dV]P[Sar][NMeV]; ester I:1-I:C, II:1-II:C; linker I:N-II:N via Actinocin(9to1))
inactive: dose: 0.05 mg/kg/injection, schedule: Q01DX001 (ip), vehicle: saline 110 % of control | dose: 0.1 mg/kg/injection, schedule: Q01DX001 (ip), vehicle: saline 117 % of control | dose: 0.2 mg/kg/injection, schedule: Q01DX001 (ip), vehicle: saline 112 % of control | dose: 1.0 micrograms/kg/injection, schedule: Q01DX015 (ip), vehicle: saline 94 % of control | dose: 2.0 micrograms/kg/injection, schedule: Q01DX015 (ip), vehicle: saline 108 % of control | dose: 4.0 micrograms/kg/injection, schedule: Q01DX015 (ip), vehicle: saline 105 % of control | dose: 5.0 micrograms/kg/injection, schedule: Q01DX010 (ip), vehicle: saline 109 % of control | dose: 6.0 micrograms/kg/injection, schedule: Q01DX015 (ip), vehicle: saline 105 % of control | dose: 9.0 micrograms/kg/injection, schedule: Q01DX015 (ip), vehicle: saline 111 % of control | dose: 10.0 micrograms/kg/injection, schedule: Q01DX010 (ip), vehicle: saline 119 % of control | dose: 13.0 micrograms/kg/injection, schedule: Q01DX015 (ip), vehicle: saline 94 % of control | dose: 20.0 micrograms/kg/injection, schedule: Q01DX015 (ip), vehicle: saline 119 % of control
